Earlier results, collected in patent US20110230549A1, “PHARMACEUTICAL COMPOSITIONS FOR THE TREATMENT OF PAIN” (GW Pharma Limited, priority 2005, published 2011).

How the values were obtained:
[1] = tested on: PBQ-induced writhing in mice; details: compared among cannabinoids and pre-cursors
[2] = tested on: patient with familial Mediterranean fever; details: 50 mg

Row | Compound | Inhibition of PBQ-induced writhing in mice ([1]; oral administration) | Effectiveness at reducing analgesia and inflammation [1] | Amount of analgesia that the patient required [2]
1 | C=C(C)[C@@H]1CCC(C)=C[C@H]1c1c(O)cc(CCCCC)cc1O [CBD, cannabidiol] | most effective |  | 
2 | CCCCCc1cc(O)c2c(c1)OC(C)(C)c1ccc(C)cc1-2 [CBN] |  | least effective | 
3 | CCCCCc1cc(O)c2c(c1)OC(C)(C)[C@@H]1CCC(C)=C[C@@H]21 [THC, delta-9-tetrahydrocannabinol] |  | least effective | highly significant reduction
